IC50 data for 19 compounds are collected here from ChEMBL document CHEMBL1208724, “A new group of oxime carbamates as reversible inhibitors of fatty acid amide hydrolase” (Bioorg Med Chem Lett, 2010).

The target of this test is T1, Fatty-acid amide hydrolase 1 (Mus musculus, UniProt O08914).
T1 sequence (O08914 whole entry): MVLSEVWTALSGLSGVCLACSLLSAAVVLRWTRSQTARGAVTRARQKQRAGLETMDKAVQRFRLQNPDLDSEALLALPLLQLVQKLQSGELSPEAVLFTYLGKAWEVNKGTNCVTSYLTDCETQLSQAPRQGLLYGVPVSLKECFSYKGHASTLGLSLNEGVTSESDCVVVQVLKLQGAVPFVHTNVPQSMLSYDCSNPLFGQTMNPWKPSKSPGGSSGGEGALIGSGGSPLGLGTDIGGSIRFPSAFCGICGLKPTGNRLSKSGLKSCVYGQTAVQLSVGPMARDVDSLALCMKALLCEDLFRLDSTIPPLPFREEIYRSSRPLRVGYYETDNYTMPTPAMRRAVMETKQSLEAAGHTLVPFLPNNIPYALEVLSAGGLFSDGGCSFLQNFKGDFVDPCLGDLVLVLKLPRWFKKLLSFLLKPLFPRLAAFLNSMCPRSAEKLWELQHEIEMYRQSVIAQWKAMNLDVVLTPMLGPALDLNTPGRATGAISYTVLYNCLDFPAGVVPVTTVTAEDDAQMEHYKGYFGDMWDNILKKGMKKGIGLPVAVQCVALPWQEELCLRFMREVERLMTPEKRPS
Nature of the test: Inhibition of mouse brain FAAH assessed as conversion of [3H-ethanolamine]AEA to [3H]ethanolamine by scintillation counting.
For the compound `C/C(=N\OC(=O)N1CCCCC1)c1cccc(-c2cccs2)c1`, the IC50 (commonly the concentration at which inhibition is half-maximal) stood at 112 nM.
As for `C/C(=N\OC(=O)N(c1ccccc1)c1ccccc1)c1cccc(-c2ccccc2)c1`, the figure is over 50000 nM; as for `C/C(=N\OC(=O)Nc1ccccc1)c1ccc(-c2ccccc2)cc1`, 760 nM; as for `C/C(=N\OC(=O)Nc1ccccc1)c1ccc(-c2cccs2)cc1`, 200 nM.
Under `C/C(=N\OC(=O)Nc1ccc2sccc2c1)c1cccc(-c2ccccc2)c1` stands 232 nM; under `C/C(=N\OC(=O)Nc1cccc2ccccc12)c1ccc(-c2ccccc2)cc1`, 401 nM.
As for `C/C(=N\OC(=O)Nc1cccc2ccccc12)c1cccc(-c2ccccc2)c1`, the figure is 10 nM; as for `C/C(=N\OC(=O)N1CCCCC1)c1cccc(-c2ccccc2)c1`, 220 nM; as for `COc1ccc(NC(=O)O/N=C(\C)c2cccc(-c3ccccc3)c2)cc1`, 28 nM.
With `C/C(=N\OC(=O)Nc1cccc2ccccc12)c1ccc(-c2cccs2)s1`, the IC50 is over 1000 nM.
As for `C/C(=N\OC(=O)Nc1ccccc1)c1cccc(-c2ccccc2)c1`, the figure is 69 nM; as for `C/C(=N\OC(=O)Nc1cccc2ccccc12)c1ccc(C2CCCCC2)cc1`, over 1000 nM; as for `C/C(=N\OC(=O)Nc1cccc2ccccc12)c1ccc(-n2c(C)ccc2C)cc1`, over 1000 nM.
As for `C/C(=N\OC(=O)Nc1ccccc1)c1cccc(-c2cccc(C(N)=O)c2)c1`, the IC50 was 84 nM.
Consider `C/C(=N\OC(=O)Nc1ccc(F)cc1)c1cccc(-c2ccccc2)c1`, for which the IC50 is 17 nM.
Under `CCCCCCCCCCCCNC(=O)O/N=C(\C)c1cccc(-c2cccs2)c1` stands 116 nM.
As for `C/C(=N\OC(=O)N(C)C)c1ccc(-c2ccccc2)cc1`, the figure is over 50000 nM; as for `C/C(=N\OC(=O)NCCCCCc1ccccc1)c1cccc(-c2ccccc2)c1`, 100 nM.
For the compound `C/C(=N\OC(=O)Nc1ccccc1)c1cccc(-c2cccc(C(=O)NC(=O)Nc3ccccc3)c2)c1`, the IC50 was over 25000 nM.
